In PMC3392537 (Neuropharmacology, 2012):

What was measured:
[1] = target: rat α3β4 (Rattus norvegicus, UniProt P04757+P12392); assay: two-electrode voltage clamp, Xenopus oocytes; assay type: cell-based
[2] = target: α3(2)β4(2)α5 (β4–6–α3 concatamer + α5) (Homo sapiens, UniProt P30926+P32297); assay: two-electrode voltage clamp, Xenopus oocytes; assay type: cell-based
Sequence of α3(2)β4(2)α5 (β4–6–α3 concatamer + α5) (P32297 32-505): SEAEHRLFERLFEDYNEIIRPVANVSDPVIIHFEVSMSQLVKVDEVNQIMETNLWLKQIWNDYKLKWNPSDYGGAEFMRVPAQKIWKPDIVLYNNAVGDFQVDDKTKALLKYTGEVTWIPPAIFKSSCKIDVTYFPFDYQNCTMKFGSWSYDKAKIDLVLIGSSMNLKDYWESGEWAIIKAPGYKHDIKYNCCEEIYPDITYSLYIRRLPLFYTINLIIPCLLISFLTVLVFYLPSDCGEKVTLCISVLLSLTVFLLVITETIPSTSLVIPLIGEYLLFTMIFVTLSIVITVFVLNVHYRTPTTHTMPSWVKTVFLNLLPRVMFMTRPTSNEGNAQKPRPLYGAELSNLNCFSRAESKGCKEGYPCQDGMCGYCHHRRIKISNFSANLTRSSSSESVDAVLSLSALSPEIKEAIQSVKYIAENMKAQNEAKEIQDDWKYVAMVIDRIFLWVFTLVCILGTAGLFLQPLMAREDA
Sequence of α3(2)β4(2)α5 (β4–6–α3 concatamer + α5) (P30926 22-498): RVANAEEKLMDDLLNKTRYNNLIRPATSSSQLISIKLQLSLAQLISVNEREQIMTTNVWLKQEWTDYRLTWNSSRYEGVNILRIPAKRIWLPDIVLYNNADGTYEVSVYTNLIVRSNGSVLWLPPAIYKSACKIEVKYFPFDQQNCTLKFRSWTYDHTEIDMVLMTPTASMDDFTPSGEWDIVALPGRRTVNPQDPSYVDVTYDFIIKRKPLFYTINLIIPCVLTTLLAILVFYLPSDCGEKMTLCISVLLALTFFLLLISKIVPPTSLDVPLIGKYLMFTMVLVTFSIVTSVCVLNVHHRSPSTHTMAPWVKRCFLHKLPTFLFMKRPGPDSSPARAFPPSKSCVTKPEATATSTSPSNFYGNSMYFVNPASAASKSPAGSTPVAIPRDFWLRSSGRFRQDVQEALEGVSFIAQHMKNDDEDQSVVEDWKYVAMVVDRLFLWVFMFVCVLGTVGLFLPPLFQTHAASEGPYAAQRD
Sequence of α3(2)β4(2)α5 (β4–6–α3 concatamer + α5) (P30532 23-468 partner): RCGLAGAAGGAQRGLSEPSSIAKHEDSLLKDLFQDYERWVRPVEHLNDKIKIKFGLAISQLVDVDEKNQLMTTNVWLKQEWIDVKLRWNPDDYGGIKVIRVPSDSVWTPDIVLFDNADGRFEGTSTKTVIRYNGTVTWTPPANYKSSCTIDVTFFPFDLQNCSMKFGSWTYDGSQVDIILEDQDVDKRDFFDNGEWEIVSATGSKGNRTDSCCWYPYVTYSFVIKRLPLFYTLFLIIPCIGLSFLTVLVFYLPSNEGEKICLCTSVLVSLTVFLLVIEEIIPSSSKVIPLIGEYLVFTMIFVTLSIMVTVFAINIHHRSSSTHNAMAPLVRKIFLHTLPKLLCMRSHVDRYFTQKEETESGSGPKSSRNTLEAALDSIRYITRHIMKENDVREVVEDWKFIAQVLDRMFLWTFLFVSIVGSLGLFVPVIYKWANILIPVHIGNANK

Sequence of rat α3β4 (P04757 26-499): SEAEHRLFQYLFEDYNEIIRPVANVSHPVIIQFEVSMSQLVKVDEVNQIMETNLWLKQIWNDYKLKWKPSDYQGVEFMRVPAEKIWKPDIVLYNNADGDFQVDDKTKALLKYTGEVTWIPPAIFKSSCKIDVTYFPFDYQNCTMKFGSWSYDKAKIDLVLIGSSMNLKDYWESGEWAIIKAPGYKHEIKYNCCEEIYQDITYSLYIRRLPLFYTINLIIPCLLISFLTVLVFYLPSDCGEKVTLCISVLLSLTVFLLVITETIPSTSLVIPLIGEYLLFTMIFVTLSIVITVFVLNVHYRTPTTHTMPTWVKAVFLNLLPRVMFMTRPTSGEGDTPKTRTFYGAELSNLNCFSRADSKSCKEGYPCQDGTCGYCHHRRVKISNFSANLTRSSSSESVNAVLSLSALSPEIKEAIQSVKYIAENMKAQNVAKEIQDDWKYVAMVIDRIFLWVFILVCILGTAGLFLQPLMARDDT
Sequence of rat α3β4 (P12392 21-495): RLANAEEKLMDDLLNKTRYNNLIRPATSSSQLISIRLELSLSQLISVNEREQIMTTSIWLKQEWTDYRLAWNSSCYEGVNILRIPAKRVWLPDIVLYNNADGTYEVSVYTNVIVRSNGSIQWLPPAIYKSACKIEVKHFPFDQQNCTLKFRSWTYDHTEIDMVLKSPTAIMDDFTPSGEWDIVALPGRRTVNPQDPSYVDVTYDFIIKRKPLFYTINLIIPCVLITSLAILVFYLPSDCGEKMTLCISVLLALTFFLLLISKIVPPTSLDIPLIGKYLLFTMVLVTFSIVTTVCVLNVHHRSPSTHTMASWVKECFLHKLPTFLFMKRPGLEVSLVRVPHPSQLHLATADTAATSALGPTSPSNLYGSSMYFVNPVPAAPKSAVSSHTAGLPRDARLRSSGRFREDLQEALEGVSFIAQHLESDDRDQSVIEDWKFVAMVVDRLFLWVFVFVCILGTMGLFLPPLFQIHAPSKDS

Row | IC50 [2] [µM] | Compound | EC50 [1] [µM]
1 |  | c1cnc2cc3c(cc2n1)C1CNCC3C1 [varenicline] | 28 ± 3.2
2 |  | O=c1cccc2n1C[C@@H]1CNC[C@H]2C1 [cytisine] | 520 ± 50
3 | 9.17 ± 1.08 | COc1ccc(C=C2CCCN=C2c2cccnc2)c(OC)c1 [GTS-21, 3-(2,4dimethoxybenzylidene)anabaseine] | 
